{"source": "paper PMC12802961", "about": "(Journal of Antimicrobial Chemotherapy, 2025)", "key": {"K. pneumoniae 59": {"test_system": "K. pneumoniae 59", "test": "Checkerboard broth microdilution MIC of cefepime alone and with taniborbactam", "type": "cell-based, Klebsiella pneumoniae", "conditions": "ESBL-producing K. pneumoniae; in vitro checkerboard", "source_text": "(§1) Four previously well-characterized cefepime-resistant isolates, namely one ESBL-producing E. coli, one ESBL-producing K. pneumoniae and two P. aeruginosa (one VIM- and one AmpC constitutively -producing), were used."}, "[1]": {"test_system": "β-lactamase–producing Enterobacterales and Pseudomonas aeruginosa", "test": "Neutropenic murine thigh infection model, all isolates together", "type": "in vivo", "description": "[…]. […] […]. All dosing regimens were performed in at least two animals per dosing regimen.\nAt t = 0 h, 2 h after infection, two mice were humanely euthanized to determine the initial number of cfu/thigh just before treatment. All other animals were euthanized at t = 24 h unless the welfare of the animals indicated earlier termination, following animal welfare regulations. Thighs were taken and moved to a pre-cooled 10 mL plastic tube (Transport Tube, Omnilabo, NL) containing 2 mL PBS (NaCl 8.00 g/L, Na2HPO4 * 2H2O 1.44 g/L, KH2PO4 0.26 g/L, pH 7.2–7.4). Subsequently, thighs were homogenized using the Ultra-Turrax homogenizer (IKA Labortechnik, Germany). For each thigh 10-fold dilution series were prepared and 3 × 10 µL per dilution were plated (Chromagar, bioMérieux, NL). The following day, colonies were counted and the number of cfu/thigh was calculated. The drug effect was then determined as the difference between the log10cfu/thigh values at t = 24 h and t = 0 h (mean value of two mice) expressed as Δlog10cfu, i.e. positive result for growth, zero for static effect and negative for reduction of inoculum (killing).\n. […] Free drug concentrations were used in all calculations. […]"}, "P. aeruginosa 132 [2]": {"test_system": "P. aeruginosa 132", "test": "Neutropenic murine thigh infection model", "type": "in vivo, Pseudomonas aeruginosa", "description": "(§2) All dosing regimens were performed in at least two animals per dosing regimen.\n(§3) At t = 0 h, 2 h after infection, two mice were humanely euthanized to determine the initial number of cfu/thigh just before treatment. […] Subsequently, thighs were homogenized using the Ultra-Turrax homogenizer (IKA Labortechnik, Germany). For each thigh 10-fold dilution series were prepared and 3 × 10 µL per dilution were plated (Chromagar, bioMérieux, NL). The following day, colonies were counted and the number of cfu/thigh was calculated.\n(§4) Free drug concentrations were used in all calculations."}, "P. aeruginosa 106 [3]": {"test_system": "P. aeruginosa 106", "test": "Neutropenic murine thigh infection model", "type": "in vivo, Pseudomonas aeruginosa", "description": "as §2, §3, §4"}, "E. coli 52": {"test_system": "E. coli 52", "test": "Checkerboard broth microdilution MIC of cefepime alone and with taniborbactam", "type": "cell-based, Escherichia coli", "conditions": "ESBL-producing E. coli; in vitro checkerboard", "source_text": "as §1"}, "P. aeruginosa 132 [4]": {"test_system": "P. aeruginosa 132", "test": "Checkerboard broth microdilution MIC of cefepime alone and with taniborbactam", "type": "cell-based, Pseudomonas aeruginosa", "conditions": "VIM-producing P. aeruginosa; in vitro checkerboard", "source_text": "as §1"}, "P. aeruginosa 106 [5]": {"test_system": "P. aeruginosa 106", "test": "Checkerboard broth microdilution MIC of cefepime alone and with taniborbactam", "type": "cell-based, Pseudomonas aeruginosa", "conditions": "AmpC constitutively-producing P. aeruginosa; in vitro checkerboard", "source_text": "as §1"}, "[6]": {"conditions": "Ct = taniborbactam concentration where reversal of cefepime resistance was found in vitro"}, "[7]": {"conditions": "+ cefepime q2h 8 mg/kg, Ct 0.015 mg/L"}, "[8]": {"conditions": "+ cefepime q2h 8 mg/kg, Ct 0.03 mg/L"}, "[9]": {"conditions": "+ cefepime q2h 8 mg/kg, Ct 0.06 mg/L"}, "[10]": {"conditions": "+ cefepime q2h 8 mg/kg, Ct 0.125 mg/L"}, "[11]": {"conditions": "+ cefepime q2h 8 mg/kg, Ct 0.25 mg/L"}, "[12]": {"conditions": "+ cefepime q2h 8 mg/kg, Ct 0.5 mg/L"}, "[13]": {"conditions": "+ cefepime q2h 8 mg/kg, Ct 1 mg/L"}, "[14]": {"conditions": "+ cefepime q2h 8 mg/kg, Ct 2 mg/L"}, "[15]": {"conditions": "+ cefepime q2h 8 mg/kg, Ct 4 mg/L"}, "[16]": {"conditions": "taniborbactam q2h + cefepime q2h 8 mg/kg"}, "[17]": {"conditions": "+ cefepime q2h 64 mg/kg, Ct 0.015 mg/L"}, "[18]": {"conditions": "+ cefepime q2h 64 mg/kg, Ct 0.03 mg/L"}, "[19]": {"conditions": "+ cefepime q2h 64 mg/kg, Ct 0.06 mg/L"}, "[20]": {"conditions": "+ cefepime q2h 64 mg/kg, Ct 0.125 mg/L"}, "[21]": {"conditions": "+ cefepime q2h 64 mg/kg, Ct 0.25 mg/L"}, "[22]": {"conditions": "+ cefepime q2h 64 mg/kg, Ct 0.5 mg/L"}, "[23]": {"conditions": "+ cefepime q2h 64 mg/kg, Ct 1 mg/L"}, "[24]": {"conditions": "+ cefepime q2h 64 mg/kg, Ct 2 mg/L"}, "[25]": {"conditions": "+ cefepime q2h 64 mg/kg, Ct 4 mg/L"}, "[26]": {"conditions": "taniborbactam q2h + cefepime q2h 64 mg/kg"}}, "note": "Values joined by “and” are separate entries in the source; they are usually repeats but may differ in a detail not shown here. Equal values may be shown once."}
{"molecule": "NCCN[C@H]1CC[C@H](CC(=O)N[C@H]2Cc3cccc(C(=O)O)c3OB2O)CC1", "note": "[taniborbactam, Taniborbactam]", "values": [{"measurement": "Taniborbactam concentration at which reversal of phenotypic resistance to cefepime was observed", "setting": "K. pneumoniae 59", "value": 0.25, "unit": "mg/L"}, {"measurement": "%fT > Ct of taniborbactam associated with 1 log10 kill", "setting": "[1]; [6]", "value": "60%–100%"}, {"measurement": "%fT > Ct of taniborbactam associated with stasis", "setting": "[1]; [6]", "value": "40%–50%"}, {"measurement": "Effect of taniborbactam on cefepime's static effect", "setting": "[1]; all isolates, combined with cefepime", "value": "restored cefepime’s static effect against all isolates"}, {"measurement": "Taniborbactam TDDs at which cefepime regained its static effect", "setting": "[1]; all isolates, with marginally ineffective doses of cefepime", "value": "3.2 to 105", "unit": "mg/kg"}, {"measurement": "Taniborbactam TDDs at which cefepime regained its 1 log10 kill effect", "setting": "[1]; all strains except K. pneumoniae", "value": "26–293 mg/kg"}, {"measurement": "q2h regimens more effective than q8h regimens", "setting": "[1]; taniborbactam dose fractionation with cefepime q2h", "value": "> 10", "unit": "fold"}, {"measurement": "1 log kill: Taniborbactam %ƒT > Ct 0.015 mg/L", "setting": "P. aeruginosa 132 [2]; [7]", "value": 100, "unit": "%"}, {"measurement": "Stasis: Taniborbactam %ƒT > Ct 0.015 mg/L", "setting": "P. aeruginosa 132 [2]; [7]", "value": 100, "unit": "%"}, {"measurement": "1 log kill: Taniborbactam %ƒT > Ct 0.03 mg/L", "setting": "P. aeruginosa 132 [2]; [8]", "value": 100, "unit": "%"}, {"measurement": "Stasis: Taniborbactam %ƒT > Ct 0.03 mg/L", "setting": "P. aeruginosa 132 [2]; [8]", "value": 96.10, "unit": "%"}, {"measurement": "1 log kill: Taniborbactam %ƒT > Ct 0.06 mg/L", "setting": "P. aeruginosa 132 [2]; [9]", "value": 88.19, "unit": "%"}, {"measurement": "Stasis: Taniborbactam %ƒT > Ct 0.06 mg/L", "setting": "P. aeruginosa 132 [2]; [9]", "value": 79.2, "unit": "%"}, {"measurement": "1 log kill: Taniborbactam %ƒT > Ct 0.125 mg/L", "setting": "P. aeruginosa 132 [2]; [10]", "value": 71.30, "unit": "%"}, {"measurement": "Stasis: Taniborbactam %ƒT > Ct 0.125 mg/L", "setting": "P. aeruginosa 132 [2]; [10]", "value": 62.31, "unit": "%"}, {"measurement": "1 log kill: Taniborbactam %ƒT > Ct 0.25 mg/L", "setting": "P. aeruginosa 132 [2]; [11]", "value": 54.41, "unit": "%"}, {"measurement": "Stasis: Taniborbactam %ƒT > Ct 0.25 mg/L", "setting": "P. aeruginosa 132 [2]; [11]", "value": 45.1, "unit": "%"}, {"measurement": "1 log kill: Taniborbactam %ƒT > Ct 0.5 mg/L", "setting": "P. aeruginosa 132 [2]; [12]", "value": 37.51, "unit": "%"}, {"measurement": "Stasis: Taniborbactam %ƒT > Ct 0.5 mg/L", "setting": "P. aeruginosa 132 [2]; [12]", "value": 28.53, "unit": "%"}, {"measurement": "1 log kill: Taniborbactam %ƒT > Ct 1 mg/L", "setting": "P. aeruginosa 132 [2]; [13]", "value": "20.6% and 20.62%"}, {"measurement": "Stasis: Taniborbactam %ƒT > Ct 1 mg/L", "setting": "P. aeruginosa 132 [2]; [13]", "value": "11.6% and 11.63%"}, {"measurement": "1 log kill: Taniborbactam %ƒT > Ct 2 mg/L", "setting": "P. aeruginosa 132 [2]; [14]", "value": 3.72, "unit": "%"}, {"measurement": "Stasis: Taniborbactam %ƒT > Ct 2 mg/L", "setting": "P. aeruginosa 132 [2]; [14]", "value": 0, "unit": "%"}, {"measurement": "1 log kill: Taniborbactam %ƒT > Ct 4 mg/L", "setting": "P. aeruginosa 132 [2]; [15]", "value": 0, "unit": "%"}, {"measurement": "Stasis: Taniborbactam %ƒT > Ct 4 mg/L", "setting": "P. aeruginosa 132 [2]; [15]", "value": 0, "unit": "%"}, {"measurement": "1 log kill: Taniborbactam total daily dose, mg/kg", "setting": "P. aeruginosa 132 [2]; [16]", "value": 26, "unit": "mg/kg"}, {"measurement": "Stasis: Taniborbactam total daily dose", "setting": "P. aeruginosa 132 [2]; [16]", "value": 18.00, "unit": "mg/kg"}, {"measurement": "1 log kill: Taniborbactam %ƒT > Ct 0.015 mg/L", "setting": "P. aeruginosa 106 [3]; [17]", "value": 100, "unit": "%"}, {"measurement": "Stasis: Taniborbactam %ƒT > Ct 0.015 mg/L", "setting": "P. aeruginosa 106 [3]; [17]", "value": 100, "unit": "%"}, {"measurement": "1 log kill: Taniborbactam %ƒT > Ct 0.03 mg/L", "setting": "P. aeruginosa 106 [3]; [18]", "value": 100, "unit": "%"}, {"measurement": "Stasis: Taniborbactam %ƒT > Ct 0.03 mg/L", "setting": "P. aeruginosa 106 [3]; [18]", "value": 100, "unit": "%"}, {"measurement": "1 log kill: Taniborbactam %ƒT > Ct 0.06 mg/L", "setting": "P. aeruginosa 106 [3]; [19]", "value": 100, "unit": "%"}, {"measurement": "Stasis: Taniborbactam %ƒT > Ct 0.06 mg/L", "setting": "P. aeruginosa 106 [3]; [19]", "value": 100, "unit": "%"}, {"measurement": "1 log kill: Taniborbactam %ƒT > Ct 0.125 mg/L", "setting": "P. aeruginosa 106 [3]; [20]", "value": 100, "unit": "%"}, {"measurement": "Stasis: Taniborbactam %ƒT > Ct 0.125 mg/L", "setting": "P. aeruginosa 106 [3]; [20]", "value": 100, "unit": "%"}, {"measurement": "1 log kill: Taniborbactam %ƒT > Ct 0.25 mg/L", "setting": "P. aeruginosa 106 [3]; [21]", "value": 100, "unit": "%"}, {"measurement": "Stasis: Taniborbactam %ƒT > Ct 0.25 mg/L", "setting": "P. aeruginosa 106 [3]; [21]", "value": 88.39, "unit": "%"}, {"measurement": "1 log kill: Taniborbactam %ƒT > Ct 0.5 mg/L", "setting": "P. aeruginosa 106 [3]; [22]", "value": 96.5, "unit": "%"}, {"measurement": "Stasis: Taniborbactam %ƒT > Ct 0.5 mg/L", "setting": "P. aeruginosa 106 [3]; [22]", "value": 71.5, "unit": "%"}, {"measurement": "1 log kill: Taniborbactam %ƒT > Ct 1 mg/L", "setting": "P. aeruginosa 106 [3]; [23]", "value": "79.6% and 79.61%"}, {"measurement": "Stasis: Taniborbactam %ƒT > Ct 1 mg/L", "setting": "P. aeruginosa 106 [3]; [23]", "value": "54.6% and 54.61%"}, {"measurement": "1 log kill: Taniborbactam %ƒT > Ct 2 mg/L", "setting": "P. aeruginosa 106 [3]; [24]", "value": 62.71, "unit": "%"}, {"measurement": "Stasis: Taniborbactam %ƒT > Ct 2 mg/L", "setting": "P. aeruginosa 106 [3]; [24]", "value": 37.74, "unit": "%"}, {"measurement": "1 log kill: Taniborbactam %ƒT > Ct 4 mg/L", "setting": "P. aeruginosa 106 [3]; [25]", "value": 45.8, "unit": "%"}, {"measurement": "Stasis: Taniborbactam %ƒT > Ct 4 mg/L", "setting": "P. aeruginosa 106 [3]; [25]", "value": 20.82, "unit": "%"}, {"measurement": "1 log kill: Taniborbactam total daily dose, mg/kg", "setting": "P. aeruginosa 106 [3]; [26]", "value": 293, "unit": "mg/kg"}, {"measurement": "Stasis: Taniborbactam total daily dose", "setting": "P. aeruginosa 106 [3]; [26]", "value": 105.00, "unit": "mg/kg"}, {"measurement": "Taniborbactam concentration at which reversal of phenotypic resistance to cefepime was observed", "setting": "E. coli 52", "value": "≤ 0.03", "unit": "mg/L"}, {"measurement": "Taniborbactam concentration at which reversal of phenotypic resistance to cefepime was observed", "setting": "P. aeruginosa 132 [4]", "value": 0.125, "unit": "mg/L"}, {"measurement": "Taniborbactam concentration at which reversal of phenotypic resistance to cefepime was observed", "setting": "P. aeruginosa 106 [5]", "value": 2, "unit": "mg/L"}]}
